{
  "source": "patent US20240342184A1",
  "about": "“USE OF ENHANCER 3C1 IN PREPARATION OF ENHANCER FOR INTERACTION BETWEEN FXR AND CASPASE 8” (CHINA PHARMACEUTICAL UNIVERSITY, priority 2021, published 2024)",
  "key": {"[1]": {"target": "T1, interaction between FXR protein and Caspase 8 protein (Homo sapiens, UniProt Q14790+Q96RI1)", "T1 construct": "endogenous in cells; host or cells: L02 human hepatocyte cell line", "T1 sequence (Q96RI1 whole entry)": "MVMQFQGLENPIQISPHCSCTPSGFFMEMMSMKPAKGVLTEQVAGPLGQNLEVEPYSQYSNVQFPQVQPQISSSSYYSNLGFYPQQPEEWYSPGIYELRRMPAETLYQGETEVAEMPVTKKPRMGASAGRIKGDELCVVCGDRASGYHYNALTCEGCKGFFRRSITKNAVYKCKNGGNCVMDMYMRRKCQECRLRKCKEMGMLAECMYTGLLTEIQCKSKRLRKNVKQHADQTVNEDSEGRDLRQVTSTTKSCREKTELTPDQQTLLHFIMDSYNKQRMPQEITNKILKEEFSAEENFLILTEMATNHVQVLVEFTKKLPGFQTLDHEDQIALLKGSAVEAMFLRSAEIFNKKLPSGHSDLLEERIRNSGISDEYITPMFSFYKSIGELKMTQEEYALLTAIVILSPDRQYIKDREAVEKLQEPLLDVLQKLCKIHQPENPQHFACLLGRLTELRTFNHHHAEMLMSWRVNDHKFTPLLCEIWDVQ", "T1 sequence (Q14790 217-479)": "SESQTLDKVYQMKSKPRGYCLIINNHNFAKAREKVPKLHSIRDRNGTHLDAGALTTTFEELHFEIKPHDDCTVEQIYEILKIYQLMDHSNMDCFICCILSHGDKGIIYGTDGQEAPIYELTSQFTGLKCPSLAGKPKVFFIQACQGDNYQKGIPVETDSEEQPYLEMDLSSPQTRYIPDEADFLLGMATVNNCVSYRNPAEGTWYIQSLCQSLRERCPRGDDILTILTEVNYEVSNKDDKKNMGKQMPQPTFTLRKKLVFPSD", "test": "Co-IP/Western blot of the FXR-Caspase 8 interaction in healthy L02 hepatocytes", "format": "cell-based", "conditions": "3C1 at 1, 10, 100 μM for 2 h, FIG. 2", "procedure": "1) Cells were washed twice with pre-chilled phosphate-buffered saline (PBS), an appropriate amount of pre-chilled PBS was added for the last time, a pre-chilled cell scraper was used to scrape the cells from a culture dish or a culture flask, and a suspension was transferred to a 1.5 ml electropolished (EP) tube. After centrifugation at 4° C. and 4000 rpm for 5 min, a supernatant was discarded, an appropriate amount of an NP40 lysis buffer was added, a mixture obtained was shaken evenly, and the cells were ultrasonicated for a total of 3 times (5 s per time) until the cells were completely lysed. After centrifugation at 4° C. and 14000 g for 10 min, a supernatant was transferred to a new EP tube, to obtain a protein lysis buffer. A protein concentration was determined through a bicinchoninic acid (BCA) assay.\n2) 25 μl of Protein A Beads was taken and blocked with 5% bovine serum albumin (BSA) for 1 h at room temperature, and then washed with the PBS for 3 times, and a supernatant was discarded after centrifugation at 14000 g for 1 min each time. The protein lysis buffer with a uniform concentration was added to the Beads, rocking-turn was performed at 4° C. for 1 h, and a sample was pre-cleared. After centrifugation at 14000 g for 1 min, a supernatant was transferred to a new EP tube. […]"}, "[2]": {"target": "T1, interaction between FXR protein and Caspase 8 protein", "test": "Co-IP/Western blot of the FXR-Caspase 8 interaction in apoptotic L02 hepatocytes", "format": "cell-based", "conditions": "L02 cells, ActD/TNFα-induced apoptosis, 3C1 at 1, 10, 100 μM for 2 h, FIG. 3", "procedure": "A human hepatocyte cell line L02 was cultured in a complete DMEM containing 10% FBS, and placed in a culture incubator containing 5% CO2 for culturing at 37° C., and cells in a logarithmic growth phase were inoculated in a 12-well plate at a density of 2×10^5 cells/well. After 24 h, an apoptosis model was constructed by means of human tumor necrosis factor-related apoptosis-inducing ligand (TRAIL), Actinomycin D (ActD)/tumor necrosis factor alpha (TNFα), and cycloheximide (CHX)/Fas ligand (FasL) methods respectively. Cells were treated with TRAIL at 50 ng/ml for 0, 2, 4, 8, 12, and 24 h, respectively. […] Cells were incubated with ActD/TNFα for 0, 1, 2, 4, 8, and 12 h, respectively. […] Cells were incubated with […] for 0, 2, 4, and 8 h, respectively.\n1) Cells were washed twice with pre-chilled phosphate-buffered saline (PBS), an appropriate amount of pre-chilled PBS was added for the last time, a pre-chilled cell scraper was used to scrape the cells from a culture dish or a culture flask, and a suspension was transferred to a 1.5 ml electropolished (EP) tube. […] A protein concentration was determined through a bicinchoninic acid (BCA) assay. […]"}, "[3]": {"test_system": "human hepatocyte cell line L02", "test": "MTT cell viability assay in induced hepatocyte apoptosis models", "format": "cell-based", "conditions": "3C1 at 1, 10, 100 μM, L02 cells", "procedure": "A human hepatocyte cell line L02 was cultured in complete medium DMEM containing 10% fetal bovine serum (FBS), and placed in a culture incubator containing 5% CO2 at 37° C., and cells in a logarithmic growth phase were inoculated in a 96-well plate at a density of 5×10^3 cells/well. The cells were transfected at 50 nM after 24 h. Hepatocyte apoptosis was induced 48 h later after the transfection. […]\nIn addition to an apoptosis reagent, the compound 3C1 of different concentrations (1 μM, 10 μM, and 100 μM) was administered.\nAfter the time of administration, 20 μl of MTT (5 mg/ml) was added to each well, the cells were further incubated at 37° C. for 4 h, a culture medium was aspirated and discarded, 150 μl of dimethyl sulfoxide (DMSO) was added to each well, incubation was performed at 37° C. for 10 min, and the absorbance was measured at 490 nm."}, "C57BL/6 mice": {"test_system": "C57BL/6 mice", "test": "CCl4-induced liver injury of mice", "format": "in vivo, mouse", "conditions": "CCl4-injected C57BL/6 mice, 3C1 at 5 or 10 mg/kg/day i.p.", "procedure": "Before the experiment, C57BL/6 mice were acclimated for one week under the conditions of, room temperature at 22-26° C. and relative humidity of 40-60%, with light alternated with darkness for 12 h. Each mouse was housed in a separate cage with free access to water and food, and their body weights were maintained at 20-22 g. Experimental groups included a blank control group, a model group, a low-dose 3C1 administration group (5 mg/kg), and a high-dose 3C1 administration group (10 mg/kg).\nThe C57BL/6 mice in the low-dose 3C1 administration group and the high-dose 3C1 administration group were pre-administered with intraperitoneal injections of 3C1 at a dose of 5 mg/kg/day or 10 mg/kg/day, and the mice in other groups were subject to vehicle control. 3 days later, liver injury was induced by intraperitoneal injections of CCl4, and the control group was administered with mineral oil. The mice were euthanized 48 h later. Blood and livers of the mice were collected.\nAfter standing at room temperature for 0.5 h, whole blood was centrifuged at 8000 rpm for 10 min, and a supernatant was transferred to a new electropolished (EP) tube to obtain serum. Alanine transaminase (ALT) and aspartate transaminase (AST) were detected according to instructions of ALT and AST assay kits.\n1) 20 mg of a liver tissue sample from each mouse was weighed, 1.0 ml of RNAiso Plus was added, the samples were homogenized, and a homogenate was transferred to a centrifuge tubes, kept standing at room temperature for 5 min, and centrifuged at 4° C. and 12000 g for 5 min.\n2) 800 μl of a supernatant was transferred, 160 μl of chloroform was added, and a mixture obtained was vigorously shaken for 15 sec, and then centrifuged at 12000 g for 15 min after standing at room temperature for 5 min. A sample included three layers: a bottom layer as a yellow organic phase, an upper layer as a colorless aqueous phase, and an intermediate layer.\n3) 300 μl of the upper aqueous phase was carefully transferred to a new tube, 300 μl of isopropanol was added, after inverting and mixing, a mixture obtained stood at room temperature for 10 min, and after centrifugation at 12000 g for 10 min, the supernatant was discarded.\nAn RNA precipitate was washed with 1.0 ml of pre-chilled 75% ethanol and then centrifuged at 12000 g for 5 min, and a supernatant was discarded to obtain total RNA, which was reconstituted with 20 μl of DEPC water and diluted to […] after quantification.\nAccording to a system ratio indicated in the specification, the RNA solution and kit components were prepared into a system with a total volume of 20 μl, and a programmed temperature was set for reverse transcription. Specific ratio requirements were as follows:\nThe PCR system is as follows:\nWuhan Servicebio Co., Ltd. was entrusted to complete H&E staining and Sirius Red staining."}},
  "data": [
    {"molecule": "Cc1n[nH]c(=S)nc1Nc1ccc(F)c(Cl)c1", "note": "[Compound 3C1]", "values": [
      {"measurement": "interaction between FXR protein and Caspase 8 protein in healthy cells", "setting": "[1]", "value": "obviously enhanced the interaction between FXR protein and Caspase 8 protein in healthy cells in a dose-dependent manner"},
      {"measurement": "interaction between FXR protein and Caspase 8 protein in apoptotic hepatocytes", "setting": "[2]", "value": "could reverse this reduction"},
      {"measurement": "anti-apoptotic effect (cell viability, MTT)", "setting": "[3]; ActD 30 min then TNFα 20 ng/ml for 8 h", "value": "significant anti-apoptotic effects"},
      {"measurement": "anti-apoptotic effect (cell viability, MTT)", "setting": "[3]; CHX 50 μM 30 min then FasL 50 ng/ml for 8 h", "value": "significant anti-apoptotic effects"},
      {"measurement": "anti-apoptotic effect (cell viability, MTT)", "setting": "[3]; TRAIL 50 ng/ml for 24 h", "value": "significant anti-apoptotic effects"},
      {"measurement": "serum ALT level", "setting": "C57BL/6 mice; FIG. 5A", "value": "significantly reduced the elevated levels"},
      {"measurement": "serum AST level", "setting": "C57BL/6 mice; FIG. 5B", "value": "significantly reduced the elevated levels"},
      {"measurement": "liver pathology, H&E staining", "setting": "C57BL/6 mice; FIG. 5C", "value": "significant remission in the disorders of liver lobule structures, decreased infiltration of inflammatory cell, and less collagen fibers in the portal area"},
      {"measurement": "liver pathology, Sirius Red staining (red collagen fibers)", "setting": "C57BL/6 mice; FIG. 5D", "value": "hyperplasia of red collagen fibers in the livers was significantly alleviated"},
      {"measurement": "liver Timp1 mRNA level", "setting": "C57BL/6 mice; RT-PCR, P<0.001, FIG. 5E", "value": "significantly reduced their mRNA levels (P<0.001) in a dose-dependent manner"},
      {"measurement": "liver Timp2 mRNA level", "setting": "C57BL/6 mice; RT-PCR, P<0.001, FIG. 5F", "value": "significantly reduced their mRNA levels (P<0.001) in a dose-dependent manner"}
    ]}
  ]
}
